These are literature values, as cited in US20240368262A1, “A MYOSTATIN PATHWAY INHIBITOR IN COMBINATION WITH A GLP-1 PATHWAY ACTIVATOR FOR USE IN TREATING METABOLIC DISORDERS” (SCHOLAR ROCK, INC., priority 2021, published 2024).

The test system of the series is GIP and GLP-1 receptor. The following applies: Rosenstock et al., Lancet; cited from earlier work.

With Tirzepatide, the body weight entry was “reduce body weight” and the glycemic control result is given as “improve glycemic control”.
